The term IC50 denotes the concentration that inhibits the measured activity by half.

The source of these data is patent US11390617B2, “Methods of treating non-Hodgkin lymphoma using 2-(2,6-dioxopiperidin-3-yl)-4-((2-fluoro-4-((3-morpholinoazetidin-1-yl)methyl)benzyl)amino)isoindoline-1,3-dione” (Celgene Corporation, priority 2019, dated 2022).

This experiment deals with SU-DHL-4 cell line. Briefly: Cell proliferation and viability assay using SU-DHL-4 cell line (Cell Titer-Glo). It is filed as cell-based. Particulars: Homo sapiens, SU-DHL-4, 120 hours. On the procedure: The following exemplary assay uses a DLBCL cell line, for example, the SU-DHL-4 cell line (Deutsche Sammlung von Mikroorganismen und Zellkulturen GmbH [DSMZ]: catalogue number ACC-495) at 120 hours post-treatment. The seeding density for SU-DHL-4 can be optimized to ensure assay linearity in 1536-well plates.
Increasing concentrations (0.5 nM to […]) of Compounds 1, 2, and 3 were each spotted in a 20-point dilution fashion (unevenly spaced data points) via an acoustic dispenser (EDC ATS-100) into an empty 1536-well plate. The DMSO concentration was kept constant for a final assay concentration of 0.1% DMSO. Prior to testing, SU-DHL-4 cells were grown in RPMI-1640 (Roswell Park Memorial Institute-1640) medium with 10% FBS (fetal bovine serum: HyClone) and expanded in culture flasks to provide sufficient amounts of starting material. Cells were then diluted to 500 cells per well in a 5 μL volume, and added directly to the compound-spotted 1536-well plates. Cells were allowed to grow for 120 hours in 5% CO2 at 37° C. At the time when exposure of cells to compound began (t0), initial viable cell number was assessed via Cell Titer-Glo® Luminescent Cell Viability Assay at a 1 vol: 2 vol ratio according to manufacturer's instructions (Promega Corporation, Madison, Wis.) by quantifying the level of luminescence generated by adenosine-5′-triphosphate (ATP) present in viable cells. After 120 hours, cell viability of the treated cells was assessed via Cell Titer-Glo© and read for luminescence. All growth inhibition curves were processed and evaluated using Activity Base (IDBS, Alameda, Calif.). Cell viability IC50 values were calculated using a four parameter logistic model (sigmoidal dose-response model): y=(A+((B−A)/(1+((C/x)^D)))) wherein: A=YMin B=YMax C=EC50 D=Hill slope IC50=the concentration of the compound when Y=50% of DMSO control Y=cell viability measured as luminescence unit, and x=concentration of compound.

Take `O=C1CC[C@H](N2C(=O)c3cccc(NCc4ccc(CN5CC(N6CCOCC6)C5)cc4F)c3C2=O)C(=O)N1` [Compound 1, (S)-2-(2,6-dioxopiperidin-3-yl)-4-((2-fluoro-4-((3-morpholinoazetidin-1-yl)methyl)benzyl)amino)isoindoline-1,3-dione]: the IC50 was under 200 nM.
